In one test the target is T1, IRE1α (Homo sapiens, UniProt O75460).
T1 construct: Human IRE1α kinase and RNase domain (residues 547–977) was subcloned into pLIB plasmid; His tag (with TEV cleavage site) (N, cleaved yes); made in house; host or cells: Sf9 insect cells, baculovirus (Bac-to-Bac)
Description: Differential scanning fluorimetry (DSF), IRE1α. The following applies: for IRE1 ∆Tm(°C): Supplementary Fig. 3d/3e, replicate values. Format: binding. The procedure:
(§1) The DSF assay was performed in PBS buffer containing 2 mM DTT, in a total reaction volume of 20 µl with indicated compounds (final 1% DMSO) and the final concentration of 1 µM IRE1α protein and 5× SYPRO Orange fluorescent dye (5000× in DMSO, Sigma S5692). The melting curve was measured at a temperature range from 25 °C to 95 °C and in increments of 1 °C for 30 s using a Bio-Rad CFX96 Real-Time PCR detection system with the FRET scan mode. The melting temperature (Tm) was obtained by fitting the melting curve to Boltzmann sigmoidal in GraphPad Prism and the thermal shift (∆Tm) was calculated by using the equation: ∆Tm = Tm(compound) -Tm(DMSO).
A general note: DSF heats the sample and reads unfolding from a dye or from intrinsic fluorescence.

For test [1], the target named is T2, phosphorylated IRE1α (p-IRE1α) (Homo sapiens, UniProt O75460).
T2 construct: Human IRE1α kinase and RNase domain (residues 547–977) was subcloned into pLIB plasmid; His tag (with TEV cleavage site) (N, cleaved yes); made in house; host or cells: Sf9 insect cells, baculovirus (Bac-to-Bac)
T2 sequence (O75460 547-977): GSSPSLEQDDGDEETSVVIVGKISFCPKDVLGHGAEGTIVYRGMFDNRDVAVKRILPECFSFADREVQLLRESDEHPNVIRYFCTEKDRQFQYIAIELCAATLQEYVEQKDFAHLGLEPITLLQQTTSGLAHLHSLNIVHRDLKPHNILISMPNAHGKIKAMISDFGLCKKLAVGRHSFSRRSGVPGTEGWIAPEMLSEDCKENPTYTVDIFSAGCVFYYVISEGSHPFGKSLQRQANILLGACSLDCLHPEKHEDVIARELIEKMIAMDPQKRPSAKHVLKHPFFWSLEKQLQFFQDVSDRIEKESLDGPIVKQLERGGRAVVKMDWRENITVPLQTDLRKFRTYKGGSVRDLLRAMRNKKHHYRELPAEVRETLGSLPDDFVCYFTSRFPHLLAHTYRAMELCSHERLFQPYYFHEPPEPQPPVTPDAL
Description: FRET-based IRE1α RNase activity assay, phosphorylated IRE1α. Type of test: biochemical. To be noted: FRET assay. Summed up:
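Cleavage of a dual-labeled XBP1 RNA (200 nM) was followed kinetically over 1 h at room temperature at 485/535 nm, with initial slopes giving percent inhibition and IC50. Enzyme was 4 nM phosphorylated human IRE1α 547–977 from insect cells, incubated with compound for 30 min before substrate; buffer 20 mM HEPES pH 7.5, KOAc, MgOAc2, DTT, Triton X-100.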

Another test addresses T3, p-IRE1α (Homo sapiens, UniProt O75460).
T3 construct: Human IRE1α kinase and RNase domain (residues 547–977) was subcloned into pLIB plasmid; His tag (with TEV cleavage site) (N, cleaved yes); made in house; host or cells: Sf9 insect cells, baculovirus (Bac-to-Bac)
Description: Differential scanning fluorimetry (DSF), p-IRE1α. Type of test: binding. To be noted: individual replicate values. Here is the method:
as §1

“And” between values parts separate entries of the source, which are not always exact repeats. Equal entries are not always repeated. Where two headings read alike, the source gives them in different places.

T3 sequence (O75460 547-977): as above
T1 sequence (O75460 547-977): as above

In general, IC50 refers to the concentration that inhibits the measured activity by half. For `Cc1ccc2c(c1)c(CCC(=O)O)c(C)n2C(=O)c1ccccc1` [IA147], the “stabilization of IRE1α in DSF” value on IRE1α is “concentration-dependently stabilized”. Also, the “IRE1 ∆Tm(°C)” value is 0.4825 °C (2×) and 0.3925 °C and 0.4425 °C at IRE1α (compound 1.563 μM); 0.6325 °C and 0.6525 °C and 0.6425 °C and 0.5925 °C on IRE1α (compound 3.125 μM); 1.0225 °C and 1.5025 °C and 1.2125 °C and 1.1425 °C at IRE1α (compound 6.25 μM); 1.7325 °C and 2.0725 °C and 1.7925 °C (2×) at IRE1α (compound 12.5 μM); 2.7025 °C (2×) and 2.5925 °C and 2.5225 °C on IRE1α (compound 25 μM); 3.6525 °C and 3.6025 °C and 3.6325 °C and 3.5325 °C at IRE1α (compound 50 μM). Further, the “IRE1 ∆Tm(°C)” value on IRE1α (compound 100 μM) is 4.5725 °C and 4.5025 °C and 4.4925 °C and 4.4625 °C. Moreover, the IC50 was 133 nM and 130 nM in test [1] (RNase activity, mean (± SEM), read-out: p-IRE1α IC50); 154 nM and 127 nM and 116 nM in test [1] (source data, unit from Fig. 3, read-out: p-IRE1a IC50, individual replicates (n1-n4)). Besides, the “p-IRE1a ∆Tm(°C)” value is 0.22 °C and 0.13 °C and 0.08 °C and 0.11 °C at p-IRE1α (compound 1.563 μM); 0.29 °C (2×) and 0.42 °C and 0.19 °C on p-IRE1α (compound 3.125 μM); 0.58 °C and 0.78 °C and 0.38 °C and 0.50 °C at p-IRE1α (compound 6.25 μM); 0.95 °C and 0.90 °C and 0.84 °C and 1.22 °C at p-IRE1α (compound 12.5 μM); 1.52 °C and 1.79 °C and 1.41 °C and 1.95 °C on p-IRE1α (compound 25 μM); 2.33 °C and 2.18 °C and 1.98 °C and 2.60 °C at p-IRE1α (compound 50 μM). The “p-IRE1a ∆Tm(°C)” value on p-IRE1α (compound 100 μM) was 3.18 °C and 2.83 °C and 2.92 °C and 3.09 °C.
